# Laboratory results taken from patent US11547651B2, “Ecofriendly biofilm-disrupting antimicrobial formulations, their development, and their uses” (Alira Health Boston LLC, priority 2017, dated 2023).
# Like-named read-outs stand apart in the source and are kept apart here.
# Experiments:
# [1] = tested on: oral care and wound care pathogens; settings: background statement, organism not given; cited from earlier work
# mice = settings: cited from earlier work
# [2] = tested on: aquatic and terrestrial organisms; settings: cited from earlier work
# [3] = tested on: common oral care and wound care pathogens; assay: In vitro broad spectrum comparison against common oral care and wound care pathogens, silver as positive control; format: cell-based; settings: for broad spectrum antimicrobial activity compared with silver: in vitro, common oral care and wound care pathogens
# Procedure: The MIC of the antimicrobials was from literature review as well as in vitro studies in our lab with the five major oral care and five major wound care pathogens. In the literature typically only one bacteria was tested, thus, it was difficult to ascertain whether the target was a broad spectrum antimicrobial. Oral care pathogens tested include: Fusobacterium nucleatum ss vincentii, Porphyromonas gingivalis, Prevotella intermedia, Aggregatibacter actinomycetemcomitans and Streptococcus mutans. Wound care pathogens included: Pseudomonas aeruginosa, Streptococcus pyogenes, Staphylococcus aureus, Enterococcus faecalis, and Proteus mirabilis. For the JMP® SAS analysis the antimicrobial scoring was based on the MIC in μg/ml using the following point scale: 5) 1-10 μg/ml, 4) 11-25 μg/ml, 3) 26-50 μg/ml, 2) 51-100 μg/ml, 1) >101, and ND for not determined.
# In order to directly compare the top potential Ecofriendly antimicrobial candidates from the JMP SAS multivariate analysis described above, we examined how some of these compounds (aloesin, zinc pyrithione, cinnamon, lemongrass, manuka honey, peppermint, jojoba oil) performed against common oral care and wound care pathogens, using silver as a positive control. […] Zinc pyrithione is commonly used as an antibacterial and antifungal, is safe for human use, and is a common ingredient in dandruff shampoo.
# [4] = tested on: aquatic and terrestrial organisms; assay: Eco-friendliness from ECOTOX database records; settings: point scale 5 to 1 from number of ECOTOX references
# Description: Eco-friendliness ratings were based on the number of references from the ECOTOX database. The scoring used the following point scale: 5) no toxicity to aquatic and terrestrial organisms, 4) 1-10 result records, 3) 11-25, 2) 26-50, 1) >51, and ND for not determined. Commonly used compounds such as Triclosan and silver were given an unacceptable Ecofriendly score of 1.
# [5] = US EPA ecotoxicology database, aquatic environment
Molecule,microbial inhibitory concentration (MIC) [1] [µg/mL],LD50 (mice) [mg/day],"number of records/references in the ECOTOX database [2, 5]",broad spectrum antimicrobial activity compared with silver [3],number of records/references in the ECOTOX database [2],log reduction of most bacterial pathogens ([3]; planktonic bacterial and bacterial biofilms) [fold log reduction],Ecofriendly (ecotoxicology) score [4]
"Oc1cc(Cl)ccc1Oc1ccc(Cl)cc1Cl [Triclosan, 5-Chloro-2-(2,4-dichlorophenoxy)phenol]",125,1.5,513,–,–,–,–
CC(=O)Cc1cc(=O)c2c(C)cc(O)c([C@@H]3O[C@H](CO)[C@@H](O)[C@H](O)[C@H]3O)c2o1 [aloesin],–,–,–,inferior to silver,–,–,–
silver,7.5,–,–,–,"5,266",5,–
zinc pyrithione,–,–,151,better than silver,–,–,1 (>51)
